Values of other authors, collected in patent US11207317B2, “Methylnaltrexone nasal formulations, methods of making, and use thereof” (AptaPharma Inc., priority 2012, dated 2021).

Test system: opioid-induced reduction in bowel motility
Conditions: healthy volunteers; intravenous or oral administration

C[N@+]1(CC2CC2)CC[C@]23c4c5ccc(O)c4O[C@H]2C(=O)CC[C@@]3(O)[C@H]1C5 [methylnaltrexone, Methylnaltrexone]
effect on opioid-induced reduction in bowel motility: reverse opioid-induced reduction in bowel motility
